In patent publication US7378237B2, “Development of method for screening physiologically active pyrrole imidazole derivative” (Japan Science & Technology Corporation, priority 1999, dated 2008):

Test system: double-stranded DNA
Assay: Alkylation and cleavage of double-stranded DNA by ImPyLDu86 (gel, cleavage bands by heating)
Assay type: biochemical
Conditions: cleavage mainly at site 1 and site 2, bands after heating, FIG. 1
Description: Reactivities of thus synthesized PyPyLDu86 and ImPyLDu86 with DNA were determined.
Locations of alkylation can be observed as cleavage bands by heating. As a result, the double-stranded DNA was cleaved mainly at the site 1 and the site 2 from a low concentration, and it was understood that the alkylation occurred simultaneously in the double-stranded DNA. No compound to generate such a cleavage has been known until now, and it can be surely regarded as an artificial restriction enzyme.

SMILES: COC(=O)c1c(C)[nH]c2c1C13CC1CN(C(=O)/C=C/c1cc(NC(=O)c4nc(NC(C)=O)cn4C)cn1C)C3=CC2=O (stereo not shown) [ImPyLDu86]
- ratio of cleavage of double-stranded DNA: 70%
